pIC50: −log10 of the molar value. “Also recorded” adds a separate entry of the source. In the oligonucleotide strings, read from the 5' end, every base follows the letter of its sugar. An asterisk marks phosphorothioate; unmarked linkages are phosphodiester. Other units and linkages are bracketed, terminal groups are in braces. A string of capitals states the bases alone. d = 2'-deoxy (DNA)
Tests used:
[1] = test system: cellular phosphotyrosine content of K562 cells; test: Western analysis of total cellular phosphotyrosine content after electroporation of K562 cells; type: cell-based, human; conditions: K562 cells electroporated with 100 μM ODN, one hour later
Method: One hundred micrograms of protein from cell lysates were separated on a 7% SDS polyacrylamide gel. Transfer was performed overnight at 50 volts, 4° C., in a 0.2 M glycine, 25 mM Tris, pH 8.3, 0.15% SDS, 20% methanol buffer, onto […] nitrocellulose (Schleicher and Schuell Inc.). For cellular phosphotyrosine blots, Western probing was performed as described previously, with modifications (SARTOR, et al, 1991). Briefly, membranes were blocked for 2 hours with 5% albumin in TTBS (20 mM Tris HCL, pH 7.6; 0.05% Tween 20; 0.9% sodium chloride), probed for 1 hour with antiphosphotyrosine antibody (Upstate Biotechnology Inc., Lake Placid, N.Y.) diluted 1:500 in TTBS, followed by rabbit anti-mouse antibody (Cappel Research Products) and then [^125 I] protein A Sepharose (Amersham Corp., Arlington Heights, Ill.). Membranes were exposed to Kodak X-OMAT AR film overnight at -70° C. with intensifying screens.
Electroporation was performed as described (40). Briefly, 1-5×10^6 cells in 1 ml of RPMI 1640 with 10% fetal calf serum were placed into 0.4 cm gap electroporation chambers and electroporated with a Cell-Porator Electroporation System 1 (all from GIBCO BRL, Grand Island, N.Y.) at 800 microfarrads, 300 volts, at room temperature. Cells were then incubated at 37° C. for 1 hour before manipulation.
In K562 cells p210^bcr-abl is a major kinase responsible for protein tyrosine phosphorylation (38, 39). Changes in enzyme activity are therefore reflected by changes in cellular phosphotyrosine content.

p210^bcr-abl kinase = test: Immunoprecipitation kinase assay of p210bcr-abl (autophosphorylation), ODN added to kinase reaction; type: biochemical, human; conditions: for Percent Remaining Activity of p210^bcr-abl kinase relative to control: ODN 1 μM, phosphorothioate capped, mean ± SE of three experiments; for inhibition of p210^bcr-abl kinase activity in vitro (in words): ODN at 1 μM added to the immunoprecipitated enzyme
Method: The p210^bcr-abl kinase, src kinase and cdc-2 kinase were immunoprecipitated from K562 cells. The p145^abl kinase was immunoprecipitated from PC3M cells, PDGF receptor kinase from 3T3 cells, and EGF receptor kinase from A431 cells. MAP kinase was utilized as a pure protein and lck kinase was immunoprecipitated from peripheral blood lymphocytes of a normal volunteer.
Cells were washed in phosphate buffered saline (PBS) and 0.5-5×10^6 cells were solubilized in 1 ml of the specified cell lysis buffers. Unless otherwise stated, all cell lysis buffers contained the following protease inhibitors: 20 μg/ml leupeptin, 1 μg/ml aprotinin, and 1 mM phenylmethylsulfonylfluroide. For p210^bcr-abl and […] immunoprecipitation, cells were lysed with ABL lysis buffer (25 mM imidazole, pH 7.2, 0.5% NP40, 50 mM NaCl, 1 mM Na3 VO4) and lysates were clarified at 14,000 g. 4° C. for 30 minutes. Cell lysis for all other proteins was performed according to the references describing the various immunoprecipitation kinase assays.
(§1) Immunoprecipitation kinase assays of p210^bcr-abl p145^abl were performed as described, with modifications (15). Briefly, for p210^bcr-abl, 1 μg of anti-bcr antibody (clone 7C6, Oncogene Science, Uniondale, N.Y.) was added to lysates prepared from 0.5-1×10^6 K562 cells. For p145^abl, 1 μg of anti-c-abl antibody (clone 24-21), which binds to the C-terminal domain of p145^abl, was added to lysates prepared from 5×10^6 PC3M cells. After incubating 1 hour at 4° C., complexes were precipitated by incubating with protein A-Sepharose coated with rabbit anti-mouse immunoglobulin (Cappel Research Products, Durham, N.C.) for 30 minutes. The complexes were then washed as follows: ABL lysis buffer×2, PBS×1, and ABL assay buffer×1 (24 mM imidazole, pH 7.2, 1 mg/ml bovine serum albumin, and 10 mM MnCl). For p145^abl assays ABL assay buffer contained 20 mM MnCl. To access the activity of p210^bcr-abl on substrate phosphorylation, acid inactivated enolase (Sigma Chemical Co., St. Louis, Mo.) was added as described (15).
(§2) ODNs were added to kinase reaction buffers not more than 5 minutes prior to the addition of ATP. Reactions were initiated by the addition of [γ^-32 P] ATP (3000 Ci/mmole; Amersham Corp., Arlington Heights, Ill.) and quenched by the addition of 5× gel loading buffer and heating to 95° C. Kinase reactions were run for 1-10 minutes at room temperature, except for EGFR, p145^abl, and MAP kinase, which were run at 30° C. The products were then electrophoresed on SDS-polyacrylamide gels: 7% for p210^bcr-abl, EGFR, and PDGFR, 8% for p145^abl, 10% for src, lck, and cdc-2 kinase, and 12% for MAP kinase. Gels were dried and reaction products were visualized by direct autoradiography at -70° C. with Kodak X-OMAT AR film. To determine the inhibitory concentration 50, i.e., the concentration required to inhibit enzyme activity by 50% (IC50) and Ki values, gel slices containing the band of interest were excised and analyzed by Cerenkov counting.

K562 cells = test: K562 colony formation in soft agar; type: cell-based, human; conditions: 50 μM ODN, two weeks, not electroporated
Method: K562, NIH 3T3, and A431 cells were purchased from the American Type Culture Collection (Rockville, Md.). PC3M prostate cancer cells were a generous gift from J. Trepel (National Institutes of Health, Bethesda, Md.). K562 and PC3M cells were cultured in RPMI 1640 with 10% heat-inactivated fetal bovine serum (FBS; GIBCO BRL, Grand Island, N.Y.) while NIH 3T3 and A431 cells were cultured in Dulbecco's modified Eagle's medium (Biofluids, Rockville, Md.) with 10% heat inactivated FBS. Cells were maintained at 37° C., 6% carbon dioxide with biweekly media changes. For soft agar cloning, cells were suspended in 0.3% low melting temperature agarose (SeaPlaque FMC BioProducts, Rockland, Me.) in RPMI 1640 with 10% total calf serum and maintained as above.
To evaluate the effects of these various ODNs of K562 cell growth, both growth in liquid culture and growth in soft agar were examined. […] Cells were electroporated in the presence of 50 μM ODN and kept in liquid culture. For soft agar cloning experiments, cells were not electroporated, but were grown in the presence of 50 μM ODN for two weeks. Liquid cultures were replenished with fresh medium containing 50 μM ODN. Two weeks following incubation in liquid culture, the number of trypan blue-excluding cells was determined. No effect on cell growth in liquid culture could be observed with any ODN tested (data not shown).

[2] = test system: p210^bcr-abl kinase in K562 cells; test: Immunoprecipitation kinase assay of p210bcr-abl from ODN treated K562 cells; type: cell-based, human; conditions: K562 cells incubated 3 days with 50 μM ODN, washed
Method: as §1, §2
The effects of ODN1 on a cellular system were assessed. […] After 3 days, cells were washed and p210^bcr-abl kinase activity was measured. […] Neither cellular p210^bcr-abl protein content nor cell growth was affected by ODN treatment (data not shown).

PDGF receptor (PDGFR) = test: inhibition; conditions: PS, two linkages at each of 5' and 3' ends, rest phosphodiester; autophosphorylation
MAP kinase = test: inhibition; conditions: PS, two linkages at each of 5' and 3' ends, rest phosphodiester; 30 C
[3] = listed as BCR-AS all-phosphorothioate

Substance: 5' CCGACCACTTCCGAGTACTAG-3' (chemistry not given here) [ABL-1bSCR, the scrambled version of ABL-1bAS]
- total cellular protein phosphotyrosine content [1]: less marked effects

Substance: 5' GGCCGTGCAGCTCGCACCGGC 3' (chemistry not given here) [ODN1C, scrambled version of ODN1]
- Percent Remaining Activity of p210^bcr-abl kinase relative to control (p210^bcr-abl kinase): 74 ± 15%

Substance: 5' GGCGGCCGCGCTGCAACCCGT 3' (chemistry not given here) [ODN1A, scrambled version of ODN1]
- Percent Remaining Activity of p210^bcr-abl kinase relative to control (p210^bcr-abl kinase): 42 ± 6.9%

Substance: 5' GGCGGCGGCGGCGGCGGCGGC 3' (chemistry not given here) [SEQ ID NO.: 11, 21mer consisting of seven tandem GGC repeats]
- inhibition of p210^bcr-abl kinase activity in vitro (in words) (p210^bcr-abl kinase): inhibitory activity equivalent to ODN1

Substance: 5' TCCGCGAACCCGGTGCGCCGG 3' (chemistry not given here) [ODN1D, scrambled version of ODN1 / BCR-AS]
- Percent Remaining Activity of p210^bcr-abl kinase relative to control (p210^bcr-abl kinase): 79 ± 79%
- inhibition of p210^bcr-abl kinase activity in vitro (in words) (p210^bcr-abl kinase): does not inhibit kinase activity
- ability to form colonies in soft agar (K562 cells): inhibited the ability of these cells to form colonies in soft agar
- total cellular protein phosphotyrosine content ([1]; listed as BCR-SCR): effectively lowered protein phosphotyrosine content; also recorded: reduced protein phosphotyrosine content
- p210^bcr-abl kinase activity of ODN treated K562 cells [2]: did not inhibit kinase activity

Substance: 5' TGCCCAACGTCGCGCCGGCGG 3' (chemistry not given here) [ODN1B, scrambled version of ODN1]
- Percent Remaining Activity of p210^bcr-abl kinase relative to control (p210^bcr-abl kinase): 59 ± 6.4%

Substance: 5'-CGCTGAAGTTTTGAACTCTGC-3' (chemistry not given here) [B/A-AS, spans the bcr-abl fusion region, complementary to 11 bcr and 10 abl nucleotides of the mature fusion transcript]
- ability to form colonies in soft agar (K562 cells): failed to effect the cloning ability of the cells
- total cellular protein phosphotyrosine content [1]: less marked effects; also recorded: no effect
- p210^bcr-abl kinase activity of ODN treated K562 cells [2]: inhibited kinase activity

Substance: 5'-GTCCACCATGGCGCGGCCGGC-3' [ODN1 2'-methoxy modified sugars] (2'-O-methyl modified sugars, pattern not given here)
- inhibition of p210^bcr-abl kinase activity in vitro (in words) (p210^bcr-abl kinase): least effective

Substance: 5'-GTCCACCATGGCGCGGCCGGC-3' [ODN1 all phosphodiester] (unmodified DNA)
- inhibition of p210^bcr-abl kinase activity in vitro (in words) (p210^bcr-abl kinase): intermediate potencies
- total cellular protein phosphotyrosine content ([1]; listed as BCR-AS phosphodiester): equally effective

Substance: 5'-GTCCACCATGGCGCGGCCGGC-3' [ODN1 all phosphorothioate] (DNA dG*dT*dC*dC*dA*dC*dC*dA*dT*dG*dG*dC*dG*dC*dG*dG*dC*dC*dG*dG*dC)
- inhibition of p210^bcr-abl kinase activity in vitro (in words) (p210^bcr-abl kinase): most potent inhibitor
- inhibition of p210^bcr-abl kinase activity in vitro (in words) (p210^bcr-abl kinase; [3]): most effective inhibitor
- total cellular protein phosphotyrosine content [1, 3]: no effect

Substance: 5'-TCCAGGCTGCTGCCCCATAAA-3' (chemistry not given here) [ABL-1bAS, complementary to nucleotides -3 to +18 of the abl lb mRNA]
- total cellular protein phosphotyrosine content [1]: less marked effects

Substance: 5'-TGTACGTCCGGCTTACTAGTA-3' (chemistry not given here) [B/A-SCR, scrambled version of the B/A ODN]
- ability to form colonies in soft agar (K562 cells): inhibited the ability of these cells to form colonies in soft agar
- total cellular protein phosphotyrosine content [1]: effectively lowered protein phosphotyrosine content; also recorded: reduced protein phosphotyrosine content
- p210^bcr-abl kinase activity of ODN treated K562 cells [2]: did

Substance: GGCG
- inhibition of p210^bcr-abl kinase activity in vitro (in words) (p210^bcr-abl kinase): no inhibitory activity

Substance: GTCCACCATGGCGCGGCCGGC [ODN1 (BCR-AS), phosphorothioate capped]
- pIC50 (PDGF receptor (PDGFR)): 5.36
- pIC50 (MAP kinase): < 4.00
